Source: patent US12274678B2, “Cannabinoids and uses thereof” (TECHNION RESEARCH & DEVELOPMENT FOUNDATION LIMITED, priority 2019, dated 2025)
Where a SMILES comes first, the peptide text is derived from it. [ ]: non-standard residue; d: D form. The star is where a group is joined. Nle = CCCC[C@H](N)C(=O)O; Cbz = O=C(OCc1ccccc1)*

Experiments:
Type in all cases: cell-based, human
NICD [1] = assay: Western blot of NICD in Molt-4 cells pretreated with proteasome inhibitors, then Extract 12; conditions: MOLT-4 cells pretreated 1 h (MG132 2.5-7.5 μM; MG101 10 μM), then Extract 12 5 μg/mL 3 h
Protocol: FIG. 14 is a micrograph of a western blot analysis of NICD in Molt-4 cells pretreated with MG132 (proteasome inhibitor; 0, 2.5 μM, 5 μM, 7.5 μM) for 1 h and then treated with vehicle or Extract 12 (5 μg/mL) for 3 h. β-tubulin served as a loading control.
FIG. 15 is a micrograph of western blot analysis of NICD in Molt-4 cells pretreated with MG101 (proteasome inhibitor; 0, 10 μM) for 1 h and then treated with vehicle or Extract 12 (5 μg/mL) for 3 h. β-tubulin served as a loading control.
(§1) Cell Lysis and Western Blot Analyses
Following treatment, cells were solubilized in radioimmunoprecipitation assay buffer (RIPA) (Sigma-Aldrich, R0278) and the protein concentration in lysates were determined using a Bradford reagent (Sigma-Aldrich, B6916). Equal amounts of protein were resolved by Novex™ 4-20% Tris-Glycine Mini Gels (Thermo Fisher Scientific, XP04200BOX) and electrophoretically transferred to a nitrocellulose membrane (Bio-Rad, 1704159S). Membranes were blocked with TBS 0.1% Tween 20 buffer containing 5% bovine serum albumin (Sigma, A7906) for 1 h. […] Immunoreactive bands were detected by Luminata™ HRP substrate (Millipore, WBLUR0500) and visualized using a MicroChemi imager (DNR Bioimaging Systems).

MOLT-4 cells = assay: AlamarBlue cell viability assay, MOLT-4; conditions: CBD, CBDV, CF1 separately and in combinations, 24 h
Protocol: (§2) Cells were cultured in 96-well plates. At 100,000 cells/well the media was replaced with RPMI containing 0.5% FBS and different Cannabis extracts. Extracts were added in triplicate at a concentration of 1-5 μg/mL. DMSO was used as the control and applied in the same amount as in the diluted extracts. An alamarBlue® reagent was used to quantitate viability (according to the manufacturer's Instructions). Viability was measured following 24 h of incubation using fluorescence spectrophotometry at excitation and emission wavelengths of 560 and 590 nm, respectively. Viability was calculated as percent reduction between treated and control cells.

CCRF-CEM cells = assay: AlamarBlue cell viability assay, CCRF-CEM; conditions: CBD, CBDV, CF1 separately and in combinations, 24 h
Protocol: as §2

NICD [2] = assay: Immunoblotting of NICD protein in cells; conditions: MOLT-4 cells, 3 μg/mL, 24 h
Protocol: as §1
Following treatment, cells were solubilized in radioimmunoprecipitation assay buffer (RIPA) (Sigma-Aldrich, R0278) and the protein concentration in lysates were determined using a Bradford reagent (Sigma-Aldrich, B6916). Equal amounts of protein were resolved by Novex™ 4-20% Tris-Glycine Mini Gels (Thermo Fisher Scientific, XP04200BOX) and electrophoretically transferred to a nitrocellulose membrane (Bio-Rad, 1704159S). Membranes were blocked with TBS 0.1% Tween 20 buffer containing 5% bovine serum albumin (Sigma, A7906) for 1 h. The blots were then incubated overnight at 4° C. with Full Notch1 (Millipure ABS90), from Cell Signaling Technology Notch1 V1744 (4147S), c-Myc (13987), Hes1 (11988), anti-cleaved caspase-3 antibody (9664), Phospho-C-Jun (3270), C-Jun (9165), and β-tubulin (clone D3U1W, 86298) and Chac1 (ab76386) from abcam. This was followed by incubation with horseradish peroxidase-labeled matching secondary antibodies. Immunoreactive bands were detected by Luminata™ HRP substrate (Millipore, WBLUR0500) and visualized using a MicroChemi imager (DNR Bioimaging Systems).

Compound	restoration of NICD protein level by proteasome inhibition (NICD [1])	MOLT-4 cell death / cell apoptosis in viability assay of cannabinoids (MOLT-4 cells)	CCRF-CEM cell apoptosis in viability assay of cannabinoids (CCRF-CEM cells)	NICD levels after cannabinoids (NICD [2])
CC(C)C[C@@H](C=O)NC(=O)[C@H](CC(C)C)NC(=O)[C@H](CC(C)C)NC(=O)OCc1ccccc1 [MG132] (Cbz-Leu-Leu-Leu-aldehyde)	did not restore			
CCCC[C@@H](C=O)NC(=O)[C@H](CC(C)C)NC(=O)[C@H](CC(C)C)NC(C)=O [MG101] (Ac-Leu-Leu-[Nle]-aldehyde)	did not restore			
CCCCCc1cc(O)c(C2C=C(C)CCC2C(C)(C)O)c(O)c1 [CF1, 1,3-Benzenediol, 2-[(1R,6R)-6-(1-hydroxy-1-methylethyl)-3-methyl-2cyclohexen-1-yl]-5-pentyl]		produced cell apoptosis	produced cell apoptosis	decreasing NICD levels
C=C(C)[C@@H]1CCC(C)=C[C@H]1c1c(O)cc(CCCCC)cc1O [CBD, cannabidiol, reference compound]		produced cell apoptosis	produced cell apoptosis	decreasing NICD levels
C=C(C)[C@@H]1CCC(C)=C[C@H]1c1c(O)cc(CCC)cc1O [CBDV, cannabidivarin]		produced cell apoptosis	produced cell apoptosis	decreasing NICD levels
